Each block holds one compound with its values, some of them ahead of it.
How the values were obtained:
EGFR = assay: Western blot degradation of EGFR (H1975 Cell); type: cell-based, Human; details: Table D2
Protocol: Conventional Western blot assay was performed to evaluate the effects of the compounds of the present disclosure on the expression of target proteins in cells.
(1) Cell Seeding and Protein Harvesting: The selected cells were processed according to the cell seeding procedure and protein harvesting procedure in Table III-2. Table III-2 Cell Seeding and Protein Harvesting Procedures
(2) To the collected supernatant, 5X SDS sample loading buffer was added, followed by denaturation at 95°C for 5 minutes. The denatured samples were then separated by SDS-PAGE electrophoresis on a polyacrylamide gel. Proteins were transferred to a nitrocellulose membrane (0.45 µm NC membrane), blocked with blocking buffer at room temperature for 1 hour, and subjected to antibody incubation and development procedures according to the antibody manufacturer's instructions (Cell Signaling Technology).
Half-Maximal Degradation Concentration value (the drug concentration required for degrading proteins by 50%, abbreviated as DC50) reads method: comparing the grayscale values of Western blot bands from drug-treated samples with those from blank DMSO-treated controls, and identifying the drug concentration range at which the grayscale value is half that of the DMSO-treated control bands.
DC50 values can be calculated using ImageJ software to measure grayscale values of Western blot bands from drug-treated samples. The concentration-response curve is fitted to estimate the drug concentration corresponding to half the grayscale value.
Target protein remaining (%) refers to the percentage of target protein remaining in hPBMC cells after treatment with protein degrader compounds.
Calculation method for target protein remaining (%): Use ImageJ software to measure grayscale values of Western blot bands from drug (protein degrader)-treated samples. The grayscale value of drug-treated bands is divided by that of internal control protein bands, and the resulting quotient is normalized to obtain the relative percentage of remaining target protein after protein degrader treatment.
Target protein degradation rate (%) = 100% - target protein remaining (%).

H1975 = assay: CCK-8 proliferation, NCI-H1975 (H1975); type: cell-based, Human; details: Homo sapiens, NCI-H1975; Table B6, compounds designed based on the ALK inhibitors; H1975 cells; read-out: Inhibitory activity (IC50, nM) on tumor cell proliferation, H1975
How it was run: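 CCK-8 viability readout; IC50 from growth-inhibition curve fitting. Cells plated, dosed 24h later with a 10-point series, top 10µM, 5-fold steps. Culture at 37°C, 5% CO2.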

SR = assay: CCK-8 proliferation, SR; type: cell-based, Human; details: Homo sapiens; Table B6, compounds designed based on the ALK inhibitors; SR cells; read-out: Inhibitory activity (IC50, nM) on tumor cell proliferation, SR
Protocol: (§1) The tumor cells used herein were cultured in a cell culture medium listed in table A1 at 37°C in an incubator with 5% CO2. Prior to experimentation, all cell lines used were correctly identified by STR profiling, and tested negative for mycoplasma contamination using a mycoplasma detection kit through routine screenings. Table A1. Tumor cells and cell culture medium used in the present disclosure
(§2) IC50 values of the compounds of the present disclosure (including the compounds in Table 1, and compounds of examples) were measured using the Meilun Cell Counting Kit-8 kit from Dalian Meilun Biotech Co., Ltd. Assay details are as follows: tumor cells were seeded in a 96-well plate at a density listed in Table A2. After 24h, 100 µL of the inoculated cells were treated with 0.5µL of the compounds of the present disclosure (including the compounds in Tables 1 and 2, and compounds of examples) at 10 different successively decreasing concentrations (starting at the highest concentration of 10µM; 5-fold serial dilutions). After the cells were treated with the compounds of the present disclosure for a period of time, the cell viability detection reagent was added to the culture medium for cell viability assessment according to the instructions provided with the CCK-8 kit. […] The growth inhibition of the compounds of the present disclosure on cells was plotted by Prism Graphpad software, and the IC50 values of the compounds of the present disclosure were calculated therefrom. […] Seeding protocol and treatment time for tumor cells

H2228 = assay: CCK-8 proliferation, NCI-H2228 (H2228); type: cell-based; details: Homo sapiens, NCI-H2228; Table B6, compounds designed based on the ALK inhibitors; H2228 cells; read-out: Inhibitory activity (IC50, nM) on tumor cell proliferation, H2228
Protocol: as §1, §2

MM.1S = assay: CCK-8 proliferation, MM.1S; type: cell-based; details: Homo sapiens, MM1.S; Table B6, compounds designed based on the ALK inhibitors; MM.1S cells; read-out: Inhibitory activity (IC50, nM) on tumor cell proliferation, MM.1S
Protocol: as §1, §2

MCF7 = assay: CCK-8 proliferation, MCF7 (MCF-7); type: cell-based; details: Homo sapiens, MCF7; Table B6, compounds designed based on the ALK inhibitors; MCF-7 cells; read-out: Inhibitory activity (IC50, nM) on tumor cell proliferation, MCF-7
Protocol: as §1, §2

SMILES: O=C1CCN(c2ccc(CN3C4CCC3CN(c3ccc(-c5cc(F)c6c(c5)C(=O)N(C(C(=O)Nc5nccs5)c5ncn7c5CCC7)C6)cc3)C4)cn2)C(=O)N1 (stereo not shown) [GT-06256, 2-(6,7-dihydro-5H-pyrrolo[1,2-c]imidazol-1-yl)-2-(6-(4-(8-((6-(2,4-dioxotetrahydropyrimidin-1(2H)-yl)pyridin-3-yl)methyl)-3,8-diazabicyclo[3.2.1]octan-3-yl)phenyl)-4-fluoro-1-oxoisoindolin-2-yl)-N-(thiazol-2-yl)acetamide]
Degradation of substrate protein EGFR (substrate protein remaining %) (EGFR): A (A is defined as 0% ≤ substrate protein remaining % ≤ 80%)

SMILES: COC1CCN(c2nccc(Nc3cc4c(cn3)c(N3CCC(N(C)Cc5ccc(C6CCC(=O)NC6=O)cc5)CC3)nn4C(C)C)n2)CC1 (stereo not shown) [GT-06120, 3-(4-(((1-(1-isopropyl-6-((2-(4-methoxypiperidin-1-yl)pyrimidin-4-yl)amino)-1H-pyrazolo[4,3-c]pyridin-3-yl)piperidin-4-yl)(methyl)amino)methyl)phenyl)piperidine-2,6-dione]
Degradation of substrate protein EGFR (substrate protein remaining %) (EGFR): A (A is defined as 0% ≤ substrate protein remaining % ≤ 80%)

SMILES: CC(C)n1nc(N2CCN(Cc3ccc(N4CCC(=O)NC4=O)nc3)CC2)c2cnc(Nc3ccnc(-c4cnn(S(=O)(=O)C5CC5)c4)n3)cc21 [GT-06015, 1-(5-((4-(6-((2-(1-(cyclopropylsulfonyl)-1H-pyrazol-4-yl)pyrimidin-4-yl)amino)-1-isopropyl-1H-pyrazolo[4,3-c]pyridin-3-yl)piperazin-1-yl)methyl)pyridin-2-yl)dihydropyrimidine-2,4(1H,3H)-dione]
Degradation of substrate protein EGFR (substrate protein remaining %) (EGFR): A (A is defined as 0% ≤ substrate protein remaining % ≤ 80%)

SMILES: O=C1CCN(c2ccc(CN3C[C@@H]4C[C@H]3CN4c3ccc(-c4cc(F)c5c(c4)C(=O)N(C(C(=O)Nc4nccs4)c4ncn6c4CCC6)C5)cc3)cn2)C(=O)N1 (stereo partly drawn) [GT-05120, 2-(6,7-dihydro-5H-pyrrolo[1,2-c]imidazol-1-yl)-2-(6-(4-((1S,4S)-5-((6-(2,4-dioxotetrahydropyrimidin-1(2H)-yl)pyridin-3-yl)methyl)-2,5-diazabicyclo[2.2.1]heptan-2-yl)phenyl)-4-fluoro-1-oxoisoindolin-2-yl)-N-(thiazol-2-yl)acetamide]
Degradation of substrate protein EGFR (substrate protein remaining %) (EGFR): A (A is defined as 0% ≤ substrate protein remaining % ≤ 80%)

SMILES: CN(Cc1cccc(NC2CCC(=O)NC2=O)c1)C1CCN(c2ccc(Nc3ncc4nc(Nc5ccccc5)n(C5CCCC5)c4n3)cc2)CC1 (stereo not shown) [GT-07094, 3-((3-(((1-(4-((9-cyclopentyl-8-(phenylamino)-9H-purin-2-yl)amino)phenyl)piperidin-4-yl)(methyl)amino)methyl)phenyl)amino)piperidine-2,6-dione]
Degradation of substrate protein EGFR (substrate protein remaining %) (EGFR): A (A is defined as 0% ≤ substrate protein remaining % ≤ 80%)

SMILES: CN(Cc1ccc(N2CCC(=O)NC2=O)cn1)C1CCN(c2ccc(Nc3ncc4nc(Nc5ccccc5)n(C5CCCC5)c4n3)cc2)CC1 [GT-07093, 1-(6-(((1-(4-((9-cyclopentyl-8-(phenylamino)-9H-purin-2-yl)amino)phenyl)piperidin-4-yl)(methyl)amino)methyl)pyridin-3-yl)dihydropyrimidine-2,4(1H,3H)-dione]
Degradation of substrate protein EGFR (substrate protein remaining %) (EGFR): A (A is defined as 0% ≤ substrate protein remaining % ≤ 80%)

SMILES: CCn1nc(N2CCC(N(C)Cc3ccc(N4CCC(=O)NC4=O)nc3)CC2)c2cnc(Nc3ccnc(-c4cnn(S(=O)(=O)C5CC5)c4)n3)cc21 [GT-06022, 1-(5-(((1-(6-((2-(1-(cyclopropylsulfonyl)-1H-pyrazol-4-yl)pyrimidin-4-yl)amino)-1-ethyl-1H-pyrazolo[4,3-c]pyridin-3-yl)piperidin-4-yl)(methyl)amino)methyl)pyridin-2-yl)dihydropyrimidine-2,4(1H,3H)-dione]
Degradation of substrate protein EGFR (substrate protein remaining %) (EGFR): A (A is defined as 0% ≤ substrate protein remaining % ≤ 80%)

SMILES: COC1CCN(c2nccc(Nc3cc4c(cn3)c(N3CCC(N(C)Cc5ccc(N6CCC(=O)NC6=O)cc5)CC3)nn4C(C)C)n2)CC1 [GT-06121, 1-(4-(((1-(1-isopropyl-6-((2-(4-methoxypiperidin-1-yl)pyrimidin-4-yl)amino)-1H-pyrazolo[4,3-c]pyridin-3-yl)piperidin-4-yl)(methyl)amino)methyl)phenyl)dihydropyrimidine-2,4(1H,3H)-dione]
Degradation of substrate protein EGFR (substrate protein remaining %) (EGFR): A (A is defined as 0% ≤ substrate protein remaining % ≤ 80%)

IC50 (H1975): 100 to 500 nM | IC50 (H2228): 10 to 50 nM | IC50 (MM.1S): 500 to 1000 nM | IC50 (MCF7): 100 to 500 nM
SMILES: COc1cc(N2CCC(N3CCN(Cc4ccc(N5CCC(=O)NC5=O)cc4)CC3)CC2)ccc1Nc1ncc(Cl)c(Nc2ccccc2P(C)(C)=O)n1 [GT-07603, 1-(4-((4-(1-(4-((5-chloro-4-((2-(dimethylphosphoryl)phenyl)amino)pyrimidin-2-yl)amino)-3-methoxyphenyl)piperidin-4-yl)piperazin-1-yl)methyl)phenyl)dihydropyr imidine-2,4(1H,3H)-dione]
IC50 (SR): 10 to 50 nM

SMILES: COC1CCN(c2nccc(Nc3cc4c(cn3)c(N3CCC(N(C)Cc5cccc(NC6CCC(=O)NC6=O)c5)CC3)nn4C(C)C)n2)CC1 (stereo not shown) [GT-06123, 3-((3-(((1-(1-isopropyl-6-((2-(4-methoxypiperidin-1-yl)pyrimidin-4-yl)amino)-1H-pyrazolo[4,3-c]pyridin-3-yl)piperidin-4-yl)(methyl)amino)methyl)phenyl)amino)piperidine-2,6-dione]
Degradation of substrate protein EGFR (substrate protein remaining %) (EGFR): A (A is defined as 0% ≤ substrate protein remaining % ≤ 80%)

SMILES: CC(C)n1nc(N2CCC(N3CCN(Cc4ccc(N5CCC(=O)NC5=O)cc4)CC3)CC2)c2cnc(Nc3ccnc(-c4cnn(S(=O)(=O)C5CC5)c4)n3)cc21 [GT-06079, 1-(4-((4-(1-(6-((2-(1-(cyclopropylsulfonyl)-1H-pyrazol-4-yl)pyrimidin-4-yl)amino)-1-isopropyl-1H-pyrazolo[4,3-c]pyridin-3-yl)piperidin-4-yl)piperazin-1-yl)methyl)phenyl)dihydropyr imidine-2,4(1H,3H)-dione]
Degradation of substrate protein EGFR (substrate protein remaining %) (EGFR): A (A is defined as 0% ≤ substrate protein remaining % ≤ 80%)

IC50 (H1975): 500 to 1000 nM | IC50 (H2228): 50 to 100 nM | IC50 (MM.1S): 500 to 1000 nM | IC50 (MCF7): 500 to 1000 nM
SMILES: CCc1cc2c(cc1N1CCC(N3CCN(Cc4cncc(C5CCC(=O)NC5=O)c4)CC3)CC1)C(C)(C)c1[nH]c3cc(C#N)ccc3c1C2=O (stereo not shown) [GT-07706, 8-(4-(4-((5-(2,6-dioxopiperidin-3-yl)pyridin-3-yl)methyl)piperazin-1-yl)piperidin-1-yl)-9-ethyl-6,6-dimethyl-11-oxo-6,11-dihydro-5H-benzo[b]carbazole-3-carbonitrile]
IC50 (SR): 1 to 10 nM

IC50 (H1975): 500 to 1000 nM | IC50 (H2228): 50 to 100 nM | IC50 (MM.1S): 500 to 1000 nM | IC50 (MCF7): 500 to 1000 nM
SMILES: CCc1cc2c(cc1N1CCC(N3CCN(Cc4ccc(N5CCC(=O)NC5=O)cn4)CC3)CC1)C(C)(C)c1[nH]c3cc(C#N)ccc3c1C2=O [GT-07311, 8-(4-(4-((5-(2,4-dioxotetrahydropyrimidin-1(2H)-yl)pyridin-2-yl)methyl)piperazin-1-yl)piperidin-1-yl)-9-ethyl-6,6-dimethyl-11-oxo-6,11-dihydro-5H-benzo[b]carbazole-3-carbonitrile]
IC50 (SR): 1 to 10 nM

Source: EP4678638A1, “NEW E3 UBIQUITIN LIGASE LIGAND, PROTEIN DEGRADATION AGENT AND USE THEREOF” (priority 2023, dated 2024)
